Assay results: US20260094669A1, “EPITOPE PREDICTION VIA A LEARNED GENOTYPE NETWORK ACROSS CLASS II MHC ALLELES” (Seattle Project Corp., priority 2023, published 2026)

T1: HLA-DP of Raji cells (DPA1*02:02/DPB1*01:01) (human, UniProt P20036 29-222; P04440 30-225, limits assumed)
T1 construct: whole, on cells; also called Raji_25mer DP
T1 MHC II alpha: not shown
T1 MHC II beta: not shown


biological target: T2, HLA-DP of DBB cells (DPA1*01:03/DPB1*04:01) (human, UniProt P20036 29-222; P04440 30-225, limits assumed); experiment: targeted MS of peptides eluted from HLA-DP IP (B7/21.1), DBB cells expressing KRAS G12C 25mer; conditions: not given
T2 construct: whole, on cells; also called DBB_25mer DP
T2 sequence (P20036 29-222 limits assumed, chain 1 of 4, other chains not shown): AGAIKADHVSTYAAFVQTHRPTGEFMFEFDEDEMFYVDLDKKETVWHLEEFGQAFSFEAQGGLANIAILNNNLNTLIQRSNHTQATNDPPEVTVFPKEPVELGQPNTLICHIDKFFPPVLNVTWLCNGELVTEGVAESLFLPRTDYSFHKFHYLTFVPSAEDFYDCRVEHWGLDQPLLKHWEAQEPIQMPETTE
T2 sequence (P04440 30-225 limits assumed, chain 2 of 4, other chains not shown): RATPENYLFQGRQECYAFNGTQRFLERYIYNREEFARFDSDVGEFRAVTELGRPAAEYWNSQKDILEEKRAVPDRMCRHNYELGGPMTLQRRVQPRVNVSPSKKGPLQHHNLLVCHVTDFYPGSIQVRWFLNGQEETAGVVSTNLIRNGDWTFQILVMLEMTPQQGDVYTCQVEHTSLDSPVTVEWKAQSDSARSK

| Molecule | binding result |
| --- | --- |
| MTEYKLVVVGAC (KRAS G12C peptide eluted from HLA class II of cells engineered to express a KRAS G12C construct; also called Peptide_098class2; KRAS MHC II Peptide 098) | binds |

system: IFNγ-producing T cells (PBMCs); experiment: ex vivo IFNγ ELISpot assay; format: cell-based, human; conditions: PBMCs from single donor SE-0386

| Molecule | response to single peptides from CD8 pools, ex vivo ELISpot |
| --- | --- |
| EYKLVVVGACG [Peptide_29] | demonstrated a response |

same assay, conditions: patient G05-002-122 PBMCs following vaccination

| Molecule | responses to single 8-11mer peptides, ex vivo IFNγ ELISpot |
| --- | --- |
| EYKLVVVGACG [Peptide_29] | confirmed responses |

system: rTCR Jurkat cells (CD69, CD25); experiment: recombinant TCR (rTCR) Jurkat functional assay; format: cell-based, human; conditions: co-culture with class II matched KAS116 cells

| Molecule | response of TCR969/TCR995 rTCR Jurkat cells to the peptide |
| --- | --- |
| EYKLVVVGACG [Peptide_29] | confirmed responses |

Biological target: T1, HLA-DP of Raji cells …
Experiment: targeted MS of peptides eluted from HLA-DP IP (B7/21.1), Raji cells expressing KRAS G12C 25mer
Conditions: not given

| Molecule | binding result |
| --- | --- |
| GACGVGKSALTIQLI (KRAS G12C peptide eluted from HLA class II of cells engineered to express a KRAS G12C construct; also called Peptide_099class2; KRAS MHC II Peptide 099) | binds |

system: CD4 or CD8 T cell depleted PBMCs; experiment: CD4/CD8 depletions followed by IFNγ ELISpot or FluoroSpot; format: cell-based, human; conditions: PBMCs from single donors; peptide #29: donor SE-0386
Method: CD4 or CD8 T cells were depleted from total PBMCs using Miltenyi MACS microbeads and columns. PBMCs were labeled with anti-CD4 or anti-CD8 microbeads before being run through a MACS Column placed in a MACS Separator magnet. Labeled cells remained in the column and the negative fractions were collected as either the CD8 or CD4 enriched population. Cells were then plated at 200,000 cells/well and stimulated overnight in an IFNγ ELISpot assay or FluoroSpot assay to detect IFNγ or IL-2.

| Molecule | responses in CD4 enriched (CD8 depleted) samples |
| --- | --- |
| EYKLVVVGACG [Peptide_29] | demonstrated responses |

same assay, conditions: class II long OLP pools deconvolution

| Molecule | T cell response in healthy donor SE-0386 |
| --- | --- |
| EYKLVVVGACG [Peptide_29] | CD4^+ T cell-dependent response |

system: CD4+ T cell; experiment: not given; conditions: CD4+ immunogenicity label (1/0) used in logistic regression; ELISpot response data from Ott et al.; cited from earlier work

| Molecule | y |
| --- | --- |
| AASAAAFPSQRTSWEFLQSLVSIKQEK | 1 |
| AAVRPEQRPAARGSRV | 0 |
| ALLQNVELRRNVLVSPTPLAN | 0 |
| ARLQSKEYPVIFKSIMRQRLISPQL | 0 |
| ASATEPANDSLFSPGAANLFSTYLAR | 0 |
| DEQGREAELARSGPSAAGPVRLKPGLVPGL | 0 |
| DGAWPVLLDKFVEWYKDKQMS | 0 |
| DGGRQHSGPRRHSGAGPKPSSSEWAVCWAP | 0 |
| DGVSEEFWLVDLLPSTHYT | 1 |
| DKGHQFHVHPLLHSGDDLDP | 0 |
| DRASFLLTDYALSPDGSIRKATG | 1 |
| DRSVLAKKLKFVTLVFRHGDRSPID | 0 |
| DSYHLYAYHEELSATVPSQWKKIG | 0 |
| DVTGPHLYSIYLHGSTDKLPYVTMGS | 0 |
| EDLDANLRKLNFRLFVIRGQPAD | 0 |
| EDSDKLFESKAELADHQKF | 0 |
| EIHGKCENMTITSRGTTVTPTKETVSLG | 0 |
| ELQYRGRELRFNLIANQHLLAPGFVSETR | 1 |
| ERFWRNILLLSLHKGSLYPRIPGLGKE | 0 |
| EVVGGYTWPSGNIYQGYWAQGKR | 0 |
| FAKGFRESDLNSWPVAPRPLLSV | 0 |
| FCGTPDYIAPKIIAYQPYGKSVD | 0 |
| FPVVQSTEDVFPQGLPNEYAFVT | 0 |
| GDQYKATDFVADWAGTFKMVFTPKDGSG | 1 |
| GHEHQPDMQKSLLRAAFFGKCFLDR | 1 |

| Molecule | y |
| --- | --- |
| GHQKLPGKIHLFEAEFTQVAKKEPDG | 1 |
| GLTRISIQRAQPLPPCLPSFRPPTALQGLS | 0 |
| GPLQLPVTRKNMPLPGVVKLPPLPGS | 0 |
| GRMSPSQFARVPGYVGSPLAAMNPK | 1 |
| GSGSQMPAWRTRGAISASSTQKTPTTRL | 0 |
| GSVLQFMPFTTVSELMKVSAMSSPKV | 0 |
| HASHLQEHQRIYTGEKPFKCDT | 0 |
| HLLQKQTSIQSPSLYGNSSPPLNK | 0 |
| KGEKNGMTFSSTKDYVNNV | 0 |
| KHLPGVNFPGNQWNPVEGILPS | 0 |
| KLRTIPLSDNTIFRRICTIAKHLE | 1 |
| KMQRRNDDKSILMHGLVSLRESSRG | 0 |
| LCPREEFLRLCKKIMMRSIQ | 0 |
| LENNANHDETSFLLPRKESNIVD | 0 |
| LGETMGQVTEKLQPTYMEET | 0 |
| LHTHYDYVSALHPVSTPSKEYTSA | 0 |
| LNTGLFRIKFKEPLENLI | 0 |
| LSPREEFLRLCKKIMMRSIQ | 1 |
| MAGPKGFQYRALYPFRRER | 0 |
| MSQDIKKADEQIESMTYSTERKT | 0 |
| NLKAPRLLFAPEYGPKLKLRALEDRHS | 0 |
| NNSKKKWFLFQDSKKIQVEQPQ | 0 |
| NQVLASRYGIRGFSTIKIFQKGESPV | 0 |
| PAHPSQGAVPPSRAAAEPHLKPSPSELQTA | 1 |
| PAPPPAVPKEHPAPPAPPPASAPTP | 0 |

| Molecule | y |
| --- | --- |
| PASAKSRREFDKIELAYRR | 0 |
| PENDDLFMMPRIVDVTSLATEGG | 0 |
| PETGEIQVKTFLDREQRESYELKV | 0 |
| PGGDSGELITDAHELGVAHPPGY | 0 |
| RGQIKLADFRLARLYSSEESR | 0 |
| RGRLPAGAVRTLLSQVNKVWDQSS | 0 |
| RLVLGKFGDLTNNFSSPHAR | 0 |
| RPAGRTQLLWTPAAPTAMAEVGPGHTP | 1 |
| RRGGALFASRPRFTPL | 0 |
| RYNSTAATNEVSEVTVFSKSPVT | 0 |
| SDAFSGLTALPQSILLFGP | 0 |
| SGSPPLRVSVGDFSQEFSPIQEAQQD | 1 |
| SHHTHSYQRYSHPLFLPGHRLDPPI | 0 |
| SHKLESIKEITNFKDAKQLL | 0 |
| SHLASLKNNVSPVLRSHSFSDPSPKFA | 1 |
| SHNELADSGIPENSFNVSSLVE | 0 |
| SHQIHSYQLYTHPLLHPWDHRD | 0 |
| SHTQTTLFHTFYELLIQKNKHK | 0 |
| SLPSNVLSSLVLVPLHTTPK | 0 |
| SLRNNMFEISDRFIGIYKTYNITK | 0 |
| SLTEESGGAVAFFPGNLSTSSSA | 0 |
| SPGPRTAPRPGSQKQAGKDWQ | 0 |
| SPIKLVQKVASKIPFPDRITEESV | 0 |
| SPQSGGAATLAAQARLQPVHLDVWGEHERG | 0 |
| SRLQTRKNKKLALSSTPSNIAPSD | 1 |

| Molecule | y |
| --- | --- |
| SSHYKFSKPALQSQSISLVQQS | 1 |
| SSPLGRANGRRFANPRDSFSAMGFQR | 0 |
| STEVEPKESPHLARHRHLMKTLVKSLST | 0 |
| STLPVISDSTTKRRWSALVIGL | 0 |
| STQHADLTIIDNIKEMNFLRRYK | 0 |
| TAQFAPSPGQPPALSPSYPGHRLPLQQG | 0 |
| TETVNHHYLLFQNTDLGSFHDLLR | 1 |
| TFPKKIQMLARDFLDEY | 0 |
| TGKPEMDFVRLAQLFARARPMGLF | 0 |
| TIKNSDKNVVLEHFG | 0 |
| TKLKSKAPHWTNCILHEYKNLSTS | 0 |
| TKRQVILLHTELERFLEYLPLRF | 0 |
| TRNSFALVPSLQRLMLRKVALKNVDSSPS | 0 |
| TTPSGSAEYMASEVVEVFTDQAT | 0 |
| TTVTHERKQAKVVNPPIQEVGKGARK | 0 |
| VKQLERGEASVVDFKKNLEYAAT | 0 |
| VNGISSQPQVPFYPNLQKSQYYSTV | 0 |
| VTLNDMKARQKALVRERERQLA | 0 |
| VTSPKASPVTFPAAAFPTASPANKD | 1 |
| WCTEMKRVFGFPVHYTDVSNMS | 0 |
| WTPAAPTAMAEVGPGHTPAHPSQGAVPP | 1 |
| YLSHTLGAASSFMRPTVPPPQF | 0 |
